Test results from patent publication US8778958B2, “Synthesis of metabolically stable agents for alcohol and drug abuse” (priority 2008, dated 2014).
Read-outs that look alike come from different tables or passages of the source.

How the values were obtained:
Assay in all cases: biochemical
Assay type in all cases: binding
[1] = target: T1, κ-opioid receptor (Homo sapiens, UniProt P41145); conditions: read-out: Ki (nM) ± SEM, κ
T1 construct: expressed in transfected cells; host or cells: CHO cells
T1 sequence (P41145 whole entry): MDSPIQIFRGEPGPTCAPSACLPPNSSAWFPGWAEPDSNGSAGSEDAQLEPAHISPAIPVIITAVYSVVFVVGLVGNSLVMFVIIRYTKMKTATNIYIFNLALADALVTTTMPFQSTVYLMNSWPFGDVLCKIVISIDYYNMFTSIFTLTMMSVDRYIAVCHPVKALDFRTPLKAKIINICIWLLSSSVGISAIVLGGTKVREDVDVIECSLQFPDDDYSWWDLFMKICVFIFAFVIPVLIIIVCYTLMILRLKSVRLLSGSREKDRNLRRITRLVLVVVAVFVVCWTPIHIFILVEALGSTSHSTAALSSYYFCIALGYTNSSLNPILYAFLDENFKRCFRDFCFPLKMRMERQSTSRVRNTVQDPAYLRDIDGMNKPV

[2] = target: T2, μ-opioid receptor (Homo sapiens, UniProt P35372)
T2 construct: expressed in transfected cells; host or cells: CHO cells
T2 sequence (P35372 whole entry): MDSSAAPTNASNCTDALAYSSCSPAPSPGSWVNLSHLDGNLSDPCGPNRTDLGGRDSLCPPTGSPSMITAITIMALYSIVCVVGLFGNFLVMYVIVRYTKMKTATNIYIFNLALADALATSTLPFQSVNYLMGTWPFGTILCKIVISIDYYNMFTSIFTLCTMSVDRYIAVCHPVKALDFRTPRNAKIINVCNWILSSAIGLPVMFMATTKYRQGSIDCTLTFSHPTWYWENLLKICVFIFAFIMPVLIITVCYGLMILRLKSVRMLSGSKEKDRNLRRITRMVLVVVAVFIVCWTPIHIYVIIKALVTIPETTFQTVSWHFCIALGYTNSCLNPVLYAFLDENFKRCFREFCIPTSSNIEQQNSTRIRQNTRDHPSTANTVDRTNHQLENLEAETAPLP

[3] = target: T3, δ-opioid receptor (Homo sapiens, UniProt P41143); conditions: Table 1b; for Ki: N-oxides
T3 construct: expressed in transfected cells; host or cells: CHO cells
T3 sequence (P41143 whole entry): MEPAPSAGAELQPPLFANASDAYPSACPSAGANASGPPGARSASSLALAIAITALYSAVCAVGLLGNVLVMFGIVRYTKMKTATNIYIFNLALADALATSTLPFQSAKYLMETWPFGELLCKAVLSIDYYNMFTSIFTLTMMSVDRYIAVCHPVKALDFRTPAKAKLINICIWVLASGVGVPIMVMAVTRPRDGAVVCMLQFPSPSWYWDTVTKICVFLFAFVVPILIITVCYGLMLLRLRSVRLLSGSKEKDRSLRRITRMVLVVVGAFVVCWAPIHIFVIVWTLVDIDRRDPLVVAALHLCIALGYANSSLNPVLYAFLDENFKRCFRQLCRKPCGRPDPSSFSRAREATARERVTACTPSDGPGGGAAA

[4] = Ki (nM) ± SEM, μ, Table 1b, N-oxides

Compound	Ki ([1]; Table 1b, N-oxides) [nM]	Ki ([2]; read-out: Ki (nM) ± SEM, μ) [nM]	Ki ([3]; read-out: Ki (nM) ± SEM, δ) [nM]	Inhibition of agonist binding, δ ([3]; concentration not given) [% inh]	Ki [1] [nM]	Ki [2, 4] [nM]	Ki ([3]; Ki (nM) ± SEM, δ) [nM]
17-Cyclopropylmethyl-3,14-β-dihydroxy-4,5α-epoxy-6α-N-methyl-(3′,4′-dichloro)morphinan-N-oxide [Compound 51]	2 ± 0.09	7.3 ± 0.2	120 ± 5	–	–	–	–
17-Cyclopropylmethyl-3,14-β-dihydroxy-4,5α-epoxy-6β-N-methyl-(4′-iodo)morphinan-N-oxide [Compound 62]	224 ± 15.7	408 ± 11.5	–	<50	–	–	–
17-Cyclopropylmethyl-3,14β-dihydroxy-4,5α-epoxy-6α-(6-acetamido-2,3,4,6-tetra-O-benzyl-D-pyranose)morphinan-N-oxide [Compound 36]	18 ± 1	308 ± 13	1860 ± 144	–	–	–	–
CN(C(=O)/C=C/c1ccoc1)[C@@H]1CC[C@@]2(O)[C@H]3Cc4ccc(O)c5c4[C@@]2(CC[N+]3([O-])CC2CC2)[C@H]1O5 (relative stereo) [Compound 44, 17-Cyclopropylmethyl-3,14β-dihydroxy-4,5α-epoxy-6β-[N-methyl-trans-3-(3-furyl)acrylamido]morphinan-N-oxide]	–	–	–	–	3.9 ± 0.5	65 ± 7.7	2510 ± 231
Cc1ccc(C(=O)N[C@@H]2CC[C@@]3(O)[C@H]4Cc5ccc(O)c6c5[C@@]3(CC[N+]4([O-])CC3CC3)[C@H]2O6)cc1 (stereo partly drawn) [Compound 21, 17-Cyclopropylmethyl-3,14β-dihydroxy-4,5α-epoxy-6β-[(4′-methyl)benzamido]morphinan-N-oxide]	–	–	–	–	3.1 ± 0.16	5.5 ± 0.2	342 ± 12.6
O=C(N[C@@H]1CC[C@@]2(O)[C@H]3Cc4ccc(O)c5c4[C@@]2(CC[N+]3([O-])CC2CC2)[C@H]1O5)c1ccc(C(F)(F)F)cc1 (stereo partly drawn) [Compound 22, 17-Cyclopropylmethyl-3,14β-dihydroxy-4,5α-epoxy-6β-[(4′-trifluoromethyl)benzamido]morphinan-N-oxide]	–	–	–	–	1.9 ± 0.11	1.4 ± 0.03	117 ± 5.18
CC(C)(C)c1ccc(C(=O)N[C@@H]2CC[C@@]3(O)[C@H]4Cc5ccc(O)c6c5[C@@]3(CC[N+]4([O-])CC3CC3)[C@H]2O6)cc1 (stereo partly drawn) [Compound 23, 17-Cyclopropylmethyl-3,14β-dihydroxy-4,5α-epoxy-6β-[(4′-tert-butyl)benzamido]morphinan-N-oxide]	–	–	–	–	1.9 ± 0.14	1.7 ± 0.07	25 ± 2.38
CN(C)c1ccc(C(=O)N[C@@H]2CC[C@@]3(O)[C@H]4Cc5ccc(O)c6c5[C@@]3(CC[N+]4([O-])CC3CC3)[C@H]2O6)cc1 (stereo partly drawn) [Compound 24, 17-Cyclopropylmethyl-3,14β-dihydroxy-4,5α-epoxy-6β-[(4′-dimethylamino)benzamido]morphinan-N-oxide]	227 ± 48.1	478 ± 23	5850 ± 560	–	–	–	–
O=C(Cc1cccs1)N[C@@H]1CC[C@@]2(O)[C@H]3Cc4ccc(O)c5c4[C@@]2(CC[N+]3([O-])CC2CC2)[C@H]1O5 (stereo partly drawn) [Compound 25, 17-Cyclopropylmethyl-3,14β-dihydroxy-4,5α-epoxy-6β-[(thiophen-2′-yl)acetamido]morphinan-N-oxide]	13 ± 1	34.8 ± 2.08	752 ± 8.91	–	–	–	–
CN(C(=O)c1ccc(Br)cc1)[C@H]1CC[C@@]2(O)[C@H]3Cc4ccc(O)c5c4[C@@]2(CC[N+]3([O-])CC2CC2)[C@H]1O5 (stereo partly drawn) [Compound 26, 17-Cyclopropylmethyl-3,14β-dihydroxy-4,5α-epoxy-6α-N-methyl[(4′-bromo)benzamido]morphinan-N-oxide]	–	–	–	–	2.41 ± 0.19	5.8 ± 0.21	51 ± 5.8
CN(C(=O)c1ccc(C(C)(C)C)cc1)[C@@H]1CC[C@@]2(O)[C@H]3Cc4ccc(O)c5c4[C@@]2(CC[N+]3([O-])CC2CC2)[C@H]1O5 (stereo partly drawn) [Compound 27, 17-Cyclopropylmethyl-3,14β-dihydroxy-4,5α-epoxy-6β-N-methyl[(4′-tert-butyl)benzamido]morphinan-N-oxide]	72 ± 12.6	714 ± 66	535 ± 43.8	–	–	–	–
COc1ccc(C(=O)N[C@@H]2CC[C@@]3(O)[C@H]4Cc5ccc(O)c6c5[C@@]3(CC[N+]4([O-])CC3CC3)[C@H]2O6)cc1OC (stereo partly drawn) [Compound 29, 17-Cyclopropylmethyl-3,14β-dihydroxy-4,5α-epoxy-6β-[(3′,4′-dimethoxy)benzamido]morphinan-N-oxide]	–	–	–	–	71 ± 4.87	37 ± 2	621 ± 16.2
COc1cccc(C(=O)N[C@@H]2CC[C@@]3(O)[C@H]4Cc5ccc(O)c6c5[C@@]3(CC[N+]4([O-])CC3CC3)[C@H]2O6)c1 (stereo partly drawn) [Compound 30, 17-Cyclopropylmethyl-3,14β-dihydroxy-4,5α-epoxy-6β-[(3′-methoxy)benzamido]morphinan-N-oxide]	–	–	–	–	9.7 ± 0.95	16 ± 1	444 ± 39.1
O=C(N[C@@H]1CC[C@@]2(O)[C@H]3Cc4ccc(O)c5c4[C@@]2(CC[N+]3([O-])CC2CC2)[C@H]1O5)c1ccccc1 (stereo partly drawn) [Compound 32, 17-Cyclopropylmethyl-3,14β-dihydroxy-4,5α-epoxy-6β-(benzamido)morphinan-N-oxide]	–	–	–	–	8.5 ± 0.92	28 ± 2	813 ± 34
O=C(Cc1ccccc1)N[C@@H]1CC[C@@]2(O)[C@H]3Cc4ccc(O)c5c4[C@@]2(CC[N+]3([O-])CC2CC2)[C@H]1O5 (stereo partly drawn) [Compound 33, 17-Cyclopropylmethyl-3,14β-dihydroxy-4,5α-epoxy-6β-(phenylacetamido)morphinan-N-oxide]	–	–	–	–	47 ± 4	43 ± 3	1400 ± 40.5
O=C(N[C@@H]1CC[C@@]2(O)[C@H]3Cc4ccc(O)c5c4[C@@]2(CC[N+]3([O-])CC2CC2)[C@H]1O5)c1cccc(O)c1 (stereo partly drawn) [Compound 34, 17-Cyclopropylmethyl-3,14β-dihydroxy-4,5α-epoxy-6β-[(3′-hydroxy)benzamido]morphinan-N-oxide]	–	–	–	–	49 ± 4	34 ± 2	1170 ± 101
O=C(N[C@@H]1CC[C@@]2(O)[C@H]3Cc4ccc(O)c5c4[C@@]2(CC[N+]3([O-])CC2CC2)[C@H]1O5)c1ccc(Cl)cc1 (stereo partly drawn) [Compound 35, 17-Cyclopropylmethyl-3,14β-dihydroxy-4,5α-epoxy-6β-[(4′-chloro)benzamido]morphinan-N-oxide]	–	–	–	–	1.8 ± 0.1	4.7 ± 0.12	219 ± 7.97
O=C(N[C@H]1CC[C@@]2(O)[C@H]3Cc4ccc(O)c5c4[C@@]2(CC[N+]3([O-])CC2CC2)[C@H]1O5)c1ccccc1 (stereo partly drawn) [Compound 37, 17-Cyclopropylmethyl-3,14β-dihydroxy-4,5α-epoxy-6α-(benzamido)morphinan-N-oxide]	–	–	–	–	64 ± 10	37 ± 2.6	822 ± 124
COC(=O)c1ccc(C(=O)N[C@@H]2CC[C@@]3(O)[C@H]4Cc5ccc(O)c6c5[C@@]3(CC[N+]4([O-])CC3CC3)[C@H]2O6)cc1 (stereo partly drawn) [Compound 38, 17-Cyclopropylmethyl-3,14β-dihydroxy-4,5α-epoxy-6β-[(4′-carbomethoxy)benzamido]morphinan-N-oxide]	–	–	–	–	51 ± 6	30 ± 2.1	1390 ± 279
COc1ccc(CC(=O)N[C@@H]2CC[C@@]3(O)[C@H]4Cc5ccc(O)c6c5[C@@]3(CC[N+]4([O-])CC3CC3)[C@H]2O6)cc1 (stereo partly drawn) [Compound 39, 17-Cyclopropylmethyl-3,14β-dihydroxy-4,5α-epoxy-6β-[(4′-methoxy)phenylacetamido]morphinan N-oxide]	–	–	–	–	10 ± 1	78 ± 20	472 ± 78
